In patent publication US8178506B2, “Oligomeric compounds and compositions for use in modulation of small non-coding RNAs” (Regulus Therapeutics Inc., priority 2003, dated 2012):
In the oligonucleotide strings, read from the 5' end, every base follows the letter of its sugar. An asterisk marks phosphorothioate; unmarked linkages are phosphodiester. Other units and linkages are bracketed, terminal groups are in braces. A string of capitals states the bases alone. e = 2'-O-(2-methoxyethyl) (MOE); [5mC] = 5-methylcytosine

Tested on: mir-143 binding sites
Experiment: pGL3-mir-143 sensor luciferase assay in HeLa cells
Format: cell-based, human
Details: HeLa cells, pGL3-mir-143 sensor with pCR3-pri-mir-143 (430)
Source text: In one embodiment, an expression system based on the pGL3-Control (Promega Corp., Madison Wis.) vector containing a CMV promoter controlling expression of a luciferase reporter sequence was used in transient transfections of HeLa cells with plasmids expressing miRNA or pri-miRNA mimics. To assess the ability of miRNA mimics to bind and regulate the expression of the luciferase reporter gene, two reporter plasmids were constructed: 1) a synthetic DNA fragment comprising two sites perfectly complementary to mir-143 were inserted into the pGL3-Control luciferase reporter vector, to create the pGL3-mir-143 sensor plasmid, and 2) a DNA fragment comprising the 3′-UTR of the LIM domain only 4 (LMO4) gene (predicted to be regulated by mir-143) was inserted into pGL3-Control to create pGL3-LMO4; this fragment was PCR-amplified using a primer beginning at position 1261 of the LMO4 sequence (GenBank Accession NM_006769.2, incorporated herein as SEQ ID: 809) and the downstream primer hybridizing to the poly-A tail. In each of these plasmids, the target site was placed downstream of the luciferase coding sequence and upstream of the polyadenylation signal in the 3′-UTR of the luciferase reporter vector. The unmodified pGL3-Control luciferase reporter vector was used as a control.
HeLa cells were routinely cultured and passaged as described, and on the day before transfection with expression or reporter plasmids, the HeLa cells were seeded onto 24-well plates 50,000 cells/well. Cells were transfected according to standard published procedures with various combinations of plasmids using 2 μg Lipofectamine™ 2000 Reagent (Invitrogen) per μg of plasmid DNA, or, when transfecting oligomeric compounds, 1.25 μg of Lipofectamine™ 2000 Reagent per 100 nM oligonucleotide or double-stranded RNA. The luciferase signal in each well was normalized to the Renilla luciferase (RL) activity produced from a co-transfected plasmid, pRL-CMV, which was transfected at 0.5 μg per well. Cells were treated at various dosages (4 nM, 20 nM, and 100 nM) with the following oligomeric compound mimics: 1) “ds-mir-143,” 2) “ds-Control,” 3) “pCR3-pri-mir-143,” or 4) “pri-mir-control,” as described supra. In accordance with methods described in Example 12, supra, a luciferase assay was performed 48-hours after transfection. Briefly, cells were lysed in passive lysis buffer (PLB; Promega), and 20 ul of the lysate was then assayed for RL activity using a Dual Luciferase Assay kit (Promega) according to the manufacturer's protocol. The results below are an average of three trials and are presented as percent pGL3-Control luciferase expression normalized to pRL-CMV expression (RL).
In another embodiment, HeLa cells were transfected with 0.03 μg pGL3-mir-143 sensor plasmid and 0.01 μg pRL-CMV plasmid, and, in addition, (except those samples described below as “without mir-143 pri-miRNA,”) were also transfected with 0.01 μg of an expression plasmid designed to express a mir-143 pri-miRNA mimic comprising a larger 430-nt fragment of the mir-143 primary miRNA transcript, referred to as “pCR3-pri-mir-143 (430)” ([…]; SEQ ID NO: 871). […] To further evaluate the ability of the mir-143 pri-miRNA mimic to inhibit luciferase activity from the sensor plasmid, and to assess the ability of oligomeric compounds to interfere with the inhibition of pGL3-mir-143 sensor luciferase expression by the mir-143 pri-miRNA mimic, pGL3-mir-143 sensor-expressing HeLa cells treated with pCR3-pri-mir-143 (430) were additionally treated with varying concentrations (0-, 6.7- or 20 nM) of the following oligomeric compounds: 1) ISIS Number 327901 (SEQ ID NO: 319), a uniform 2′-MOE oligomeric compound targeting mir-143; 2) ISIS Number 342673 (SEQ ID NO: 758), a uniform 2′-MOE scrambled control; or 3) ISIS Number 327924 (SEQ ID NO: 342) targeting an unrelated miRNA (mir-129-2). […]

| Substance | Relative luciferase activity (6.7 nM) | Relative luciferase activity (20 nM) |
| --- | --- | --- |
| 327901 (antisense eT*eG*eA*eG*e[5mC]*eT*eA*e[5mC]*eA*eG*eT*eG*e[5mC]*eT*eT*e[5mC]*eA*eT*e[5mC]*eT*e[5mC]*eA) [compound 327901] | 4.0 | 6.4 |
| 342673 (antisense eA*eG*eA*e[5mC]*eT*eA*eG*e[5mC]*eG*eG*eT*eA*eT*e[5mC]*eT*eT*eT*eA*eT*e[5mC]*e[5mC]*e[5mC]) [compound 342673] | 1.3 | 1.5 |
